US7745493B2, “Methods of treating tardive dyskinesia and other movement disorders” (priority 1998, dated 2010)

Legend:
[1] = test system: person two with long-standing TD; experiment: Paced Auditory Serial Addition Test (PASAT) (Case 1); assay type: in vivo, human; conditions: lower score better
Description: (§1) The tests showing such results included Simple Reaction Time, the Trail Making Test (both parts) and the Paced Auditory Serial Addition Test (PASAT). Choice reaction time, a test requiring both basic attention and concentration on a specific task that must be kept in mind, was slightly better on acamprosate, consistent with the hypothesis that general cognitive function, as opposed to simple attention, improves with acamprosate treatment.
(§2) The following tables report on the results of the neuropsychological tests (Drug I is memantine and Drug II is acamprosate): […]

[2] = test system: person two with long-standing TD; experiment: Trail Making Test, Trails A (Case 1); assay type: in vivo, human; conditions: lower score better
Description: as §1, §2

[3] = test system: person two with long-standing TD; experiment: Motor Functions: Grooved Functions (Case 1); assay type: in vivo, human; conditions: ON drug, lower score better; for Grooved Functions sec. DH: DH = right
Description: as §2

[4] = test system: person two with long-standing TD; experiment: Trail Making Test, Trails B (Case 1); assay type: in vivo, human; conditions: ON drug; for Trails B Seconds: lower score better
Description: as §1, §2

[5] = test system: person two with long-standing TD; experiment: Case Report 1: clinical observation of TD with blepharospasm; assay type: in vivo, human; conditions: Case 1; for effect on involuntary movements of TD: clinical observation, acamprosate 333 mg four times a day; for cognitive function (energy, attention, concentration): subjective and objective
Description: Palliative treatment with alprazolam (an anxiolytic and GABA agonist via modulation; dosage 0.25 mg four times a day) and trihexyphenidyl (an anticholinergic antiparkinson drug that inhibits dopamine re-uptake at synapses; dosage 2 mg twice a day) was prescribed by another physician.
Initially, their other medications were maintained unchanged.
Nimodipine was discontinued, and the patient was begun on memantine at a dosage of 10 mg twice a day.
For the following 10 days they added 250 mg three times a day of chelated magnesium.

[6] = test system: person one with long-standing TD; experiment: Case Report 2: clinical observation of TD; assay type: in vivo, human; conditions: Case 2; for effect on involuntary movements of TD: acamprosate 666 mg three times daily added to memantine, magnesium oxide 250 mg three times a day added to acamprosate; for cognitive symptoms / memory: subjective
Description: person one had long-standing TD following decades of treatment with the neuroleptic drug perphenazine. Their involuntary movements comprised bilateral chorea of the upper extremities, plus writhing of the tongue and tongue-biting. Both of the latter movements led to a very sore tongue. In addition, the patient experienced impairment of their short-term memory, which was attributed primarily to cerebrovascular disease.
They also continued to have a sore tongue. […] In addition to memantine, the patient regularly took antiepileptic drugs (gabapentin and lamotrigine), antiplatelet agents (aspirin and ticlopidine), as well as medications for hypertension, glaucoma and gastrointestinal symptoms (isosorbide mononitrate, metoprolol, timolol eye drops and olsalazine).
The patient was placed on a treatment regime that included administration of 666 mg of acamprosate, three times daily. In this case, acamprosate was added to the patient's regimen, which continued to include memantine. […] Despite past evidence from formal testing that the patient had impaired short-term memory, they performed normally on a two-sentence memory task, which involved testing the patient's recall ability using two sentences containing 13 separate details. On the two-sentence memory task, within three attempts the patient was able to recall 9 details and, using a multiple choice format, was able to recall a total of 11 details. Recall of 9 details on the third attempt would be normal for a middle-aged adult, let alone one […].
After a full year on memantine and acamprosate, the memantine was discontinued, with little change in the patient's symptoms.
Magnesium oxide, 250 mg three times a day, was added, each dose being taken together with the acamprosate. […] The effect was definite: movements worsened when magnesium oxide was stopped and improved when it was restarted. After a month on magnesium, the dosage of acamprosate was increased to 666 mg four times a day, with 250 mg of magnesium oxide given together with each dose. […] The only residual sign of TD was a mild degree of involuntary movement of the hands.

[7] = test system: person with extremely severe tardive dyskinesia and dystonia; experiment: Case Report 4: clinical course and physician examination; assay type: in vivo, human; conditions: Case 4
[8] = test system: person two with chronic schizophrenia and severe tardive dyskinesia; experiment: Case Report 6: clinical observation of severe TD with blepharospasm in chronic schizophrenia; assay type: in vivo; conditions: Case 6
Description: A corresponding physician the United Kingdom recently reported to me on the treatment of a person with chronic schizophrenia and severe tardive dyskinesia. As in Case 1, the patient's involuntary movements included severe blepharospasm. In addition, they had involuntary rhythmic peri-oral movements, and chorea-like movements of both hands, like the patient in Case 2. They had no cognitive complaints, nor were cognitive abnormalities noted on routine psychiatric examination.
The patient had developed symptoms of paranoid schizophrenia in 1991. The symptoms of psychosis included auditory hallucinations, bizarre delusions, and persecutory fears. […] They were subsequently hospitalized and stabilized on fluphenthixol decanoate, a depot neuroleptic given by intramuscular injections. Symptoms of TD developed in November, 1994, after 28 months of neuroleptic therapy. […] Beginning in October 1997 the patient was treated for their schizophrenia with 2 mg of risperidone alone. On this modest dose of an atypical neuroleptic, they had severe symptoms of TD for which they eagerly sought treatment.
Memantine was started on November 28, 1997 at a dose of 5 mg per day, increased after 7 days to 5 mg twice a day, and after another 7 days to 5 mg three times a day. […] Further dosage increases were attempted to completely abolish the involuntary movements. The maximum dose attainable without side effects was 10 mg twice a day; above that level the patient had complaints of dizziness. That dose of memantine was maintained through May of […].
In May 1998 the patient was started on acamprosate, in pursuit of complete elimination of their involuntary movements. Initially, acamprosate 333 mg three times a day was added to memantine 10 mg twice a day.

CC12CC3CC(C)(C1)CC(N)(C3)C2 [memantine]
PASAT 1.2 sec ISI errors [1]: 28/49
PASAT 1.6 sec ISI errors [1]: 21/49
PASAT 2.0 sec ISI errors [1]: 17/49
PASAT 2.4 sec ISI errors [1]: 13/49
Trails A Errors [2]: 0
Trails A Seconds [2]: 28″
Grooved Functions sec. DH [3]: DH = 71″
Grooved Functions sec. NDH [3]: NDH = 70″
Trails B Errors [4]: 0
Trails B Seconds [4]: 118″
side effects at reduced dose ([5]; 5 mg three times a day): without perceptible side effects
time to reduction of involuntary movements ([5]; 10 mg twice a day): ≤ 24 h
effect on involuntary movements of TD ([5]; memantine 10 mg twice a day): substantially greater degree than had been observed with nimodipine
adverse effects ([5]; nimodipine 30 mg four times a day, memantine 10 mg twice a day): a sense of mild intoxication
cognitive function (energy, attention, concentration) [5]: improved energy, attention, and concentration
effect on involuntary movements of TD [6]: improved, but continued at a mild-to-moderate level
cognitive symptoms / memory [6]: did not improve
effect on movement disorder ([7]; memantine 10 mg three times a day added to acamprosate and magnesium sulfate): aggravated their movement disorder
maximum dose attainable without side effects [8]: 10 mg twice a day
involuntary movements ([8]; 5 mg three times a day): virtually no involuntary movements noted at the peak of a given dose
blepharospasm after first two weeks ([8]; 5 mg twice a day): marked improvement in blepharospasm
involuntary movements after 6 months of treatment ([8]; 10 mg twice a day): no blepharospasm or limb chorea, and only mild peri-oral movements
complaints above maximum tolerated dose ([8]; above 10 mg twice a day): dizziness

CC(=O)NCCCS(=O)(=O)O [acamprosate, calcium N-acetylhomotaurinate]
PASAT 1.2 sec ISI errors ([1]; ON drug): 13/49
PASAT 1.6 sec ISI errors ([1]; ON drug): 11/49
PASAT 2.0 sec ISI errors ([1]; ON drug): 1/49
PASAT 2.4 sec ISI errors ([1]; ON drug): 4/49
Trails A Errors ([2]; ON drug): 0
Trails A Seconds ([2]; ON drug): 20″
Grooved Functions sec. DH [3]: DH = 61″
Grooved Functions sec. NDH [3]: NDH = 70″
Trails B Errors [4]: 0
Trails B Seconds [4]: 43″
involuntary movements two months after reinstitution [5]: absent except for very mild movements during times of stress
time to recovery of energy, stamina, concentration and memory after re-instituting treatment [5]: Within two days
time able to read a book ([5]; 333 mg four times a day): over an hour at a time
effect on involuntary movements of TD ([5]; memantine 10 mg twice a day): became imperceptible
fatigue ([5]; on the acamprosate regime): significantly decreased
cognitive function (energy, attention, concentration) [5]: improved significantly
persistent symptoms on acamprosate after memantine discontinued ([6]; 666 mg three times a day): mild choreatic movements on the hands, mild involuntary movements of the tongue and jaw
effect on involuntary movements of TD [6]: chorea and tongue-biting stopped completely
cognitive symptoms / memory [6]: memory improved
time after resuming drug until previous level of benefit regained [7]: 72 h
time off drug until movement disorder returned to baseline [7]: 24 h
peri-oral movements ([8]; 333 mg three times a day added to memantine 10 mg twice a day): peri-oral movements were eliminated
involuntary movements on acamprosate alone ([8]; after memantine discontinued): continued free of involuntary movements
